Here are results for 1 molecule from US9096555B2, “Methods for treating vascular leak syndrome” (Aerpio Therapeutics, Inc., priority 2009, dated 2015).

SMILES strings stand for the structures. Entries after “also recorded” stand apart in the source; their conditions may differ.

For assay [1], the system named is IL-2 induced hypotension and death. Description: Rescue of mice from IL-2 induced hypotension and death (systolic blood pressure). Conditions: C3H/HeN female mice; 400,000 IU of IL-2 and 40 mg/kg D91; after 5 days of treatment; FIG. 5. The format is in vivo. Here is the method: A represents the systolic blood pressure of C3H/HeN female mice treated with vehicle control. […] Measurements were taken after 5 days of treatment.
A represents 0 mg/kg D91, B represents 1 mg/kg D91, C represents 3 mg/kg D91, D represents 10 mg/kg D91, and E represents 30 mg/kg D91.

In assay [2] the test system is pAKT and pERK1/2 in EA.hy962 cells. Description: Western blot analysis of pAKT and pERK1/2 in EA.hy962 cells. The format is cell-based. Conditions: EA.hy962 cells cultured with varying amounts of D91 for 10 minutes; FIG. 9a. Here is the method:
FIG. 9a depicts a Western blot analysis showing the increase in pAKT and pERK1/2 when EA.hy962 cells were cultured in the presence of varying amounts of […] for 10 minutes. FIG. 9b depicts a Western blot analysis showing the levels of pAKT, pERK1/2 and β-Actin when EA.hy962 cells were cultured in the presence of 10 μg/mL […] from start (T=0) to 120 minutes.
For orientation: In western blotting, separated proteins are transferred to a membrane and probed.

A further assay relates to brain edema after tMCAO. Description: Vasogenic edema after transient focal cerebral ischemia (tMCAO). Conditions: rats; tMCAO 60 min; 15 mg/kg t.i.d. s.c. starting 1 hour after stroke onset; after the 48 hour MRI. The format is in vivo, Sprague-Dawley rats. The procedure:
30 adult male Sprague-Dawley rats purchased from Charles River, Germany and weighing 250-330 g were used for the experiment. Animals were housed at a standard temperature (22±1° C.) and in a light-controlled environment (lights on from 7 am to 8 pm) with ad libitum access to food and water.
Animals were grouped as follows:
• Group A: 15 rats treated with Vehicle (2 mL/kg, t.i.d., s.c.) starting 1 hour after stroke onset • Group B: 15 rats treated with AKB-9778-AS (15 mg/kg, t.i.d., s.c.) starting 1 hour after stroke onset tMCAO
Transient focal cerebral ischemia was produced by MCA occlusion in male Sprague-Dawley rats according to Koizumi with modifications (Koizumi et al., Jpn. J. Stroke 8:1-8, 1986). […] The rats were carefully monitored for possible post-surgical complications after the tMCAO. […]
D91 or vehicle was administered s.c. three times a day. […] The body weight of each animal is measured daily. […]
Tissue viability and vasogenic edema was determined using absolute T2 MRI. […] In addition to absolute T2, spin density (amount of MRI visible protons, indicator of vasogenic edema) ratio of ipsi and contralateral ROI's was determined by extrapolating signal intensity at TE=0 from multiple TE data (intercept of T2 fitting).
For the determination of infarct volume, the same acquired T2-weighted images were analyzed using in-house written Matlab based software for morphometric measurement. […]

Assay [3] deals with LPS-induced renal vascular leak. Description: LPS-induced renal vascular leak, 70 kDa fluorescent fixable dextran. It is filed as in vivo. To be noted: mice; LPS at time 0, D91 at 1, 6 and 16 h; sacrifice at 24 hours; FIG. 10c. The procedure:
FIG. 10a is a micrograph of a renal section from a mouse treated with vehicle control that is subsequently injected with 70 kDa fluorescent fixable dextran by intravenous catheter 2 minutes prior to sacrifice. G indicates glomerular capillaries where the dye should normally be contained.
FIG. 10b is a micrograph showing the vascular leakage in cells of a renal section from a mouse treat with LPS that is subsequently injected with 70 kDa fluorescent fixable dextran by intravenous catheter 2 minutes prior to sacrifice.
The pattern of staining in this section is similar to 10a.
Phosphatase inhibition by the disclosed PTP-β inhibitors reduces LPS-induced renal vascular leak. Mice were injected with LPS at time 0 and D91 or vehicle at 1, 6, and 16 h. Two minutes prior to sacrifice at 24 hours 70 kDa fluorescent fixable dextrans were administered by intravenous catheter. […] FIG. 10a is a micrograph of the control sample for the 70 kDa sample wherein the Letter “G” represents glomerular capillaries where the dye should normally be contained. FIG. 10b represents a renal section taken from an LPS treated animal and FIG. 10c represents a renal section taken from an animal treated with LPS and D91.

The test system of the next assay is IL-2 induced VLS. Description: IL-2 induced vascular leak syndrome in mice (blood pressure, shock, mortality). The format is in vivo. Conditions: then 20 mg/kg for 3 days. The procedure: Twenty-five mice were used for the following experiment. Five are selected as the control and received no treatment. The remaining twenty mice were divided into four groups of five mice each and dosed as follows over a period of 5 days:
Tie-2 signal amplifier at 40 mg/kg for the first 2 days, then at 20 mg/kg for 3 days.
(VSL mechanistic analysis.

Assay [4] relates to LPS-induced acute kidney injury. Description: Liposaccharide (LPS) induced vascular leak model: acute kidney injury (BUN, renal neutrophil infiltration). It is filed as in vivo. Conditions: male C57BL6 mice. Here is the method: FIG. 7 depicts the level of blood urine nitrogen (BUN) in male C57BL6 mice injected i.p. with 0.2 mg E. coli lipopolysaccharides per 25 g body weight at 0 hours. Line (◯) represents mice receiving only LPS and line (●) represents mice receiving LPS and 50 mg/kg of D91 at 0, 8, and 16 hours.
FIG. 8 depicts the level of LPS-induced renal neutrophil infiltration at 24 hours in male C57BL6 mice injected i.p. with 0.2 mg E. coli lipopolysaccharides per 25 g body weight at 0 hours. A depicts the neutrophil infiltration in sham (conrol), B depicts the neutrophil infiltration in male C57BL6 mice injected i.p. with 0.2 mg E. coli lipopolysaccharides per 25 g body weight and 50 mg/kg of D91, C depicts mice receiving only LPS.
The following liposaccharide induced vascular leakage model can be used to confirm the ability of the disclosed compounds to decrease the effects of vascular leak syndrome caused by pathogens. […]
Male C57BL6 mice, 9 to 10 weeks old, were injected i.p. with 0.2 mg E. Coli lipopolysaccharide per 25 g body weight at time 0. […] Serum samples were analyzed for blood urea nitrogen (BUN) as a marker of kidney function.
Tissue samples from the animals were analyzed by high powered field microscopy to determine the number of polymorphonuclear leukocytes present.

In the case of `COC(=O)N[C@@H](Cc1ccccc1)C(=O)N[C@@H](Cc1ccc(NS(=O)(=O)O)cc1)c1csc(-c2cccs2)n1` [Compound D91, 4-{(S)-2-[(S)-2-(methoxycarbonylamino)-3-phenylpropanamido]-2-[2-(thiophen-2-yl)thiazol-4-yl]ethyl}phenylsulfamic acid], the “rescue from IL-2 induced hypotension and death (systolic blood pressure)” value in assay [1] is “rescue of mice from IL-2 induced hypotension and death”. Moreover, in assay [2], the “pAKT and pERK1/2 (Western blot)” value is recorded as “increase”. Also, the “brain tissue wet weight in ischemic hemisphere (edema)” value in the assay on brain edema after tMCAO was “significantly lower”. Moreover, the “extrusion of 70 kDa fluorescent dextran dye beyond the small peritubular capillaries (renal vascular leak)” value in assay [3] is “vascular integrity is preserved; also recorded: reduced”. Besides, in the assay on IL-2 induced VLS (IL-2 180,000 or 400,000 IU for 5 days plus D91 40 mg/kg first 2 days, FIG. 1), the blood pressure entry is on record as “little effect on blood pressure”. Moreover, the “clinical symptoms of shock” value in the assay with IL-2 induced VLS (high dose IL-2 (400,000 IU, 5 days) plus D91 40 mg/kg first 2 days, FIG. 2) was “no signs of shock”. In addition, the IL-2 induced mortality result with IL-2 induced VLS (high dose IL-2 (400,000 IU, 5 days) plus D91 40 mg/kg first 2 days, FIG. 3) is reported as “survived”. The “blood urine nitrogen (BUN) level” value in assay [4] (LPS 0.2 mg per 25 g i.p., D91 50 mg/kg at 0, 8 and 16 hours, at 24 hours, FIG. 7) was “less than 80 mg/dL”. Further, the “number of PMN cells present (renal neutrophil infiltration), high powered field microscopy” value in assay [4] (LPS plus D91 50 mg/kg, 24 hours, average, FIG. 8) is 12.
